Compound: C=CCNC1=C2C[C@@H](C)C[C@H](OC)[C@H](O)[C@@H](C)/C=C(\C)[C@H](OC(N)=O)[C@@H](OC)/C=C\C=C(/C)C(=O)NC(=CC1=O)C2=O [17-AAG] + COc1cc2c(Oc3ccc(NC(=O)C4(C(=O)Nc5ccc(F)cc5)CC4)cc3F)ccnc2cc1OCCCN1CCOCC1 [Foretinib] (partner 0.25 µM)
Experiment: relative viability (nuclei count vs DMSO), 5 days (fraction); higher = more cells survive
In short: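 Lung cancer cell lines in 1536-well plates got either a single drug or a fixed anchor-drug dose together with five library-drug doses (not always all listed) in √10 steps, by pin tool, on the day after seeding. Nuclei were counted after 5 days, and relative viability is the treated-to-vehicle ratio of nuclei counts. Values are medians of duplicate plates.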

Cell Line	relative viability (first compound 0.00128 µM)	relative viability (first compound 0.004048 µM)	relative viability (first compound 0.0128 µM)	relative viability (first compound 0.04048 µM)	relative viability (first compound 0.128 µM)
LCLC-97TM1	0.973	0.897	0.958	0.991	0.631
HARA	0.884	0.911	0.865	0.792	0.455
HCC-78	0.525	0.574	0.611	0.516	0.499
NCI-H1666	1.04	0.963	0.587	0.383	0.341
NCI-H2405	1.1	1.04	0.93	0.245	0.195
PC-14	0.943	0.961	0.82	0.143	0.134
NCI-H2023	0.93	0.672	0.297	0.0761	0.0537
201T	1.11	1.06	0.503	0.194	0.175
NCI-H1915	1.09	1.06	1.12	1.06	0.271
NCI-H2009	1.23	1.14	1.17	0.85	0.138
BEN	0.626	0.767	0.649	0.517	0.411
PC-3 [JPC-3]	0.981	1.04	1.01		0.885
SK-MES-1	1	0.997	0.501	0.192	0.154
NCI-H838	0.965	0.977	0.667	0.178	0.158
NCI-H1355	0.938	0.97	0.91	0.843	0.328
NCI-H1975	1.02	0.904	0.288	0.136	0.118
LK-2	1.09	1.11	1.21	1.26	0.25
NCI-H727	0.834	0.978	0.636	0.41	0.356
NCI-H2342	0.97	1.04	0.968	0.846	0.374
HCC-366	0.958	0.968	0.89	0.126	0.0491
HOP-62	1.16	1.05	0.858	0.549	0.382
NCI-H1944	0.974	0.896	0.735	0.216	0.175
UMC-11	1.02	1.04	0.847	0.27	0.174
LU99A	0.931	0.783	0.719	0.222	0.213
NCI-H650	1.04	1.02	1	0.934	0.249

Cell Line	relative viability (first compound 0.00128 µM)	relative viability (first compound 0.004048 µM)	relative viability (first compound 0.0128 µM)	relative viability (first compound 0.04048 µM)	relative viability (first compound 0.128 µM)
A-427	1.11	0.983	1.05	1.2	0.847
COR-L 105	0.965	1	0.805	0.715	0.31
NCI-H460	0.983	0.907	0.063	0.0391	0.0257
NCI-H2126	1.29	1.19	1.05	0.908	0.236
EBC-1	0.101	0.13	0.138	0.104	0.0946
NCI-H520	0.763	0.56	0.702	0.169	0.142
SW 1573	0.886	1.01	0.829	0.24	0.113
NCI-H441	0.903	0.862	0.39	0.211	0.0805
EKVX	0.895	0.805	0.175	0.192	0.131
NCI-H1734	0.895	0.951	0.856	0.282	0.18
SW 900	0.868	0.735	0.39	0.119	0.0963
ABC-1	0.9	0.882	1.08	1.05	0.432
NCI-H596	0.923	0.749	0.923	0.698	0.397
EPLC-272H	0.704	0.412	0.772	0.216	0.125
NCI-H2347		1.03	0.859	0.35	0.413
NCI-H1993	0.83	0.846	0.826	0.516	0.466
NCI-H647	1.1	1.16	0.863	0.117	0.0874
NCI-H1793	0.63	0.622	0.442	0.165	0.161
NCI-H1563	1.04	0.83	0.559	0.549	0.5
NCI-H1395	0.963	0.988	0.843	0.396	0.318
NCI-H1299	1.12	1.03	1.08	1.04	0.945
HCC-827	1.06	0.978	1.03		0.727
ChaGo-K-1	0.916	0.829	0.851	0.861	0.313
NCI-H2228	0.772	0.587	0.142	0.119	0.0997
NCI-H2170	0.961	1.01	0.955	0.607	0.328

Cell Line	relative viability (first compound 0.00128 µM)	relative viability (first compound 0.004048 µM)	relative viability (first compound 0.0128 µM)	relative viability (first compound 0.04048 µM)	relative viability (first compound 0.128 µM)
EMC-BAC-2	1.04	1.05	1.09	0.353	0.316
A549	0.963	0.815	0.55	0.0245	0.0282
NCI-H23	0.906	1.04	0.842	0.641	0.182
SK-LU-1	0.863	0.566	0.167	0.143	0.127
NCI-H358	0.669	0.397	0.0697	0.0813	0.0542
LC-2-ad	0.891	0.898	0.515	0.343	0.261
HCC-15	0.907	0.718	0.29	0.137	0.12
NCI-H3122	0.961	0.934	0.138	0.076	0.098
LXF-289	1.05	0.961	0.879	0.381	0.152
CAL-12T	1.12	1.07	1.08	0.608	0.202
COR-L23	0.938	0.943	0.846	0.854	0.143
NCI-H1755	0.92	0.898	0.888	0.302	0.309
NCI-H1437	1.21	1.22	1.09	0.259	0.193
NCI-H2085	0.92	0.834	1.06	0.844	0.563
IA-LM	1.21	1.05	1.19	0.491	0.313
H3255	0.943	0.874	0.819	0.252	0.249
NCI-H661	0.945	0.989	0.809	0.567	0.286
LCLC-103H	0.874	0.818	0.736	0.932	1.01
LOU-NH91	0.868	0.727	0.633	0.36	0.279
NCI-H1650	0.89	0.344	0.225	0.212	0.175
NCI-H322M	0.971	1.04	0.577	0.306	0.323
RERF-LC-KJ	0.883	0.951	0.974	0.346	0.296
Calu-6	0.833	0.899	0.754	0.249	0.121
NCI-H1651	0.788	0.664	0.423	0.15	0.161
NCI-H2087	1.08	0.855	0.183	0.137	0.113

From the supplement of paper PMC10307832
